Patent publication US12097202B2 (Kadmon Corporation, LLC, priority 2022, dated 2024)

What was measured:
CYP2D6 = CYP2D6 (Homo sapiens, UniProt P10635); test: In vitro metabolism by CYP2D6; assay type: in vitro ADME
pregnant rats = test: Embryo-fetal development studies in rats; assay type: in vivo, rat; settings: oral, organogenesis, pilot study
Description: In the pilot study, maternal toxicity and embryo-fetal developmental effects were observed. Maternal toxicity (reduced body weight gain) occurred at 150 and 300 mg/kg/day doses. Increased post-implantation loss occurred at 50 and 300 mg/kg/day.

[1] = Clinical pharmacokinetics in chronic GVHD patients; assay type: in vivo, human
[2] = system: human peripheral blood lymphocytes (HPBL); test: in vitro chromosome aberration assay; assay type: cell-based
[3] = system: patients with chronic GVHD; settings: human, in vivo;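 also: allogeneic HCT recipients aged ≥12 years with persistent cGVHD after two to five earlier systemic treatment lines, responses judged by site investigators, 12-month analysis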
Description: Concomitant treatment with supportive care therapies for chronic GVHD was permitted. […] Initiation of new systemic chronic GVHD therapy while on study was not permitted.
Eligible subjects were allogeneic hematopoietic cell transplant recipients aged ≥12 years with persistent cGVHD manifestations after receiving 2 to 5 prior systemic lines of therapy. Subjects were required to be receiving stable corticosteroid therapy for 2 weeks prior to screening and to have a Karnofsky or Lansky Performance Status Scale score≥60. Certain concurrent immunosuppressive medications were allowed because drug-drug interactions were not anticipated.
Randomization was stratified (1:1) by cGVHD severity and prior exposure to ibrutinib.
All responses were assessed by the study site investigators. Secondary end points included duration of response (DOR), time to response, changes in LSS summary score, failure-free survival (FFS), corticosteroid dose reductions, and overall survival (OS). DOR was measured from the time of initial PR or CR until documented progression from best response of cGVHD, time from initial response to start of additional systemic cGVHD therapy, or death. The 7-day LSS summary score was calculated based on the developer recommendations and was compared with the score from baseline; an improvement ≥7 points was considered clinically meaningful. […] Relative dose intensity (RDI) was used as a surrogate measure of drug tolerability and was defined as actual dose intensity/planned dose intensity, where dose intensity was defined as the cumulative dose over the duration of exposure (mg/d). Actual dose intensity captured the sum of actual doses received over the duration of exposure and incorporated dose reductions and/or interruptions.
The Hochberg procedure was used for multiplicity adjustment for the primary end point of best ORR. […] CI was calculated using the Clopper-Pearson interval (exact) method.

dogs = test: General toxicology studies in dogs; assay type: in vivo, dog
P-gp = P-gp (Homo sapiens, UniProt P08183); test: In vitro transporter study, P-gp; assay type: in vitro ADME
rats = test: General toxicology studies in rats; assay type: in vivo, rat

Sequence of P-gp (P08183 whole entry): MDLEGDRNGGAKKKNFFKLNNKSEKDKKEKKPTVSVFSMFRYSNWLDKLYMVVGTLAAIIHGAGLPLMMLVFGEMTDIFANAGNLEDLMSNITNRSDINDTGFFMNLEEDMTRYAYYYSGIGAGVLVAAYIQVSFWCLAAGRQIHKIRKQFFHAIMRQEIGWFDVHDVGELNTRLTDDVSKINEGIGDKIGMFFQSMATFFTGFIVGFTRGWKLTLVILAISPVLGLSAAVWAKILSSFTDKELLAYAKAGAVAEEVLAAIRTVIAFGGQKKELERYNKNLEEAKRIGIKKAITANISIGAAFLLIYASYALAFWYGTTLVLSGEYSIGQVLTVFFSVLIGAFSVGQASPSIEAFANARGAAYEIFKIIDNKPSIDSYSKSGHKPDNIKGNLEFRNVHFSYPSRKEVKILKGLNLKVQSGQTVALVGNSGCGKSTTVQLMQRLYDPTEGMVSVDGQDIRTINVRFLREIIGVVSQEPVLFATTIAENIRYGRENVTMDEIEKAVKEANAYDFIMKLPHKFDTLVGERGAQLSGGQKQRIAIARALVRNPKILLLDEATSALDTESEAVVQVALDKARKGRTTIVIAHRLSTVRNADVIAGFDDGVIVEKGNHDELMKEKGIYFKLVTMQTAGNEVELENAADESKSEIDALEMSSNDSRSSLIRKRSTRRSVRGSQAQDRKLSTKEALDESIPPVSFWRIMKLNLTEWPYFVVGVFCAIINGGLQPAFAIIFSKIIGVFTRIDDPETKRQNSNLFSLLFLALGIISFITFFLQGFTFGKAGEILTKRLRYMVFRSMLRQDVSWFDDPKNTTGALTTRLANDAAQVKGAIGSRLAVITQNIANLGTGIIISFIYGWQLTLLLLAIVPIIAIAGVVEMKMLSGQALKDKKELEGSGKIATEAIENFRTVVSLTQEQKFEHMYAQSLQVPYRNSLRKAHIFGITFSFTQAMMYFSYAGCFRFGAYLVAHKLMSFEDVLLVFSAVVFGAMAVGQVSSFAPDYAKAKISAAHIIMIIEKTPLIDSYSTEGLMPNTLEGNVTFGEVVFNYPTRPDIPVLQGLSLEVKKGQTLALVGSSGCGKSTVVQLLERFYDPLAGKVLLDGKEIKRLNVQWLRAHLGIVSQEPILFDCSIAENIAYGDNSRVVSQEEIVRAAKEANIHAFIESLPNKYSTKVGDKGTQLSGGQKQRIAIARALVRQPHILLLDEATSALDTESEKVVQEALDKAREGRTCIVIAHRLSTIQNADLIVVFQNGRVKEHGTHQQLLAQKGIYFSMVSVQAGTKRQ
Sequence of CYP2D6 (P10635 whole entry): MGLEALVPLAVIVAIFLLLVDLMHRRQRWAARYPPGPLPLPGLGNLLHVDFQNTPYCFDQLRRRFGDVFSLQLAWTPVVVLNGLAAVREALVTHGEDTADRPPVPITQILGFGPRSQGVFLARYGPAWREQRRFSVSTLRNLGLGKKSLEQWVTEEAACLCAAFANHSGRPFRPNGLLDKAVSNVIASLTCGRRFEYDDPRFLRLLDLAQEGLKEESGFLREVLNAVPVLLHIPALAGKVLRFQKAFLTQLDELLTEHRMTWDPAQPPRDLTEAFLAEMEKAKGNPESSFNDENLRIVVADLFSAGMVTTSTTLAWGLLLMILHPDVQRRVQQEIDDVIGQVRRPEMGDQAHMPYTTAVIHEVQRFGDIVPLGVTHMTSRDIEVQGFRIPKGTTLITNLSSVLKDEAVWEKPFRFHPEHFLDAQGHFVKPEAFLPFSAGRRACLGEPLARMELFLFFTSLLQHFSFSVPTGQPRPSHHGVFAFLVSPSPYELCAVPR

CC(C)NC(=O)COc1cccc(-c2nc(Nc3ccc4[nH]ncc4c3)c3ccccc3n2)c1 [belumosudil, 2-{3-[4-(1H-indazol-5-ylamino)-2-quinazolinyl]phenoxy}-N-(propan-2-yl) acetamide]
metabolism by CYP2D6 (CYP2D6): to a lesser extent
doses at which fetal malformations were observed (pregnant rats): ≥ 50 mg/kg/day
increase of Cmax and AUC with dose ([1]; dosage range of 200 and 400 mg): approximately proportional
effect of age (18 to 77 years), sex, weight (38.6 to 143 kg), mild to moderate renal impairment on pharmacokinetics ([1]; human, in vivo): No clinically significant differences
genotoxicity, chromosome aberration assay [2]: not genotoxic
Upper respiratory tract infection [3]: (27) %
dose with spermatozoa degeneration (dogs): 35 mg/kg/day
P-gp substrate status (P-gp): substrate of P-gp
inhibition of P-gp (P-gp; at clinically relevant concentrations): inhibits
dose with decreased follicular development in ovaries (rats): 275 mg/kg/day
